Results from ChEMBL document CHEMBL1201862, “PubChem BioAssay data set” (2004).
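Results reflect a 48-hour exposure of cells in 96-well plates to compound at five concentrations. Here, GI50 denotes the concentration required for 50% inhibition of growth.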 Calls of active or inactive are those of the source. No stated cut-off is given here; in the data, active = GI50 up to about 1.1 µM and inactive = higher.

Tests used:
Assay in all cases: DTP human tumour cell line panel, 48 h
[1] = tested on: ACHN
[2] = tested on: CCRF-CEM
[3] = tested on: HOP-62
[4] = tested on: HT-29
[5] = tested on: IGROV-1
[6] = tested on: KM12
[7] = tested on: LOX IMVI
[8] = tested on: MOLT-4
[9] = tested on: NCI-H23
[10] = tested on: OVCAR-3
[11] = tested on: OVCAR-4
[12] = tested on: OVCAR-5
[13] = tested on: OVCAR-8
[14] = tested on: RXF 393
[15] = tested on: SK-MEL-5
[16] = tested on: SNB-75
[17] = tested on: SW-620
[18] = tested on: U-251
[19] = tested on: UACC-257
[20] = tested on: UACC-62

Measured: GI50

CN(C)C(=O)OC1C(=O)N(C)c2ccc(Cl)cc2C2(c3ccccc3)N1C2(Cl)Cl (stereo not given)
inactive: [1] > 100 µM | [2] 75.2 µM | [3] 54.8 µM | [4] > 100 µM | [5] > 100 µM | [6] 62.1 µM | [7] > 100 µM | [8] 47.9 µM | [9] 47.8 µM | [10] 53.8 µM | [11] > 100 µM | [12] > 100 µM | [13] 95.5 µM | [14] 69.2 µM | [15] 40.3 µM | [16] 69.3 µM | [17] > 100 µM | [18] 45.3 µM | [19] 66.8 µM | [20] 64.7 µM

CCc1cc(=O)n(/C(C)=C/c2ccccc2)n1C
inactive: [1] > 100 µM | [2] > 100 µM | [3] > 100 µM | [4] > 100 µM | [5] > 100 µM | [6] > 100 µM | [7] > 100 µM | [8] > 100 µM | [9] > 100 µM | [10] > 100 µM | [11] > 100 µM | [12] > 100 µM | [13] > 100 µM | [14] > 100 µM | [15] > 100 µM | [16] > 100 µM | [17] > 100 µM | [18] > 100 µM | [19] > 100 µM | [20] > 100 µM
